Data taken from article PMC5107951 (Scientific Reports, 2016).

Legend:
Assay type in all cases: binding
α7 nAChR [1] = molecular target: T1, α7 nAChR (Homo sapiens, UniProt P36544)
α7 nAChR [2] = molecular target: T1, α7 nAChR; assay: cell-based
α7 nAChR [3] = molecular target: T1, α7 nAChR; remark: listed apart in the source

T1 sequence (P36544 23-502 limits assumed): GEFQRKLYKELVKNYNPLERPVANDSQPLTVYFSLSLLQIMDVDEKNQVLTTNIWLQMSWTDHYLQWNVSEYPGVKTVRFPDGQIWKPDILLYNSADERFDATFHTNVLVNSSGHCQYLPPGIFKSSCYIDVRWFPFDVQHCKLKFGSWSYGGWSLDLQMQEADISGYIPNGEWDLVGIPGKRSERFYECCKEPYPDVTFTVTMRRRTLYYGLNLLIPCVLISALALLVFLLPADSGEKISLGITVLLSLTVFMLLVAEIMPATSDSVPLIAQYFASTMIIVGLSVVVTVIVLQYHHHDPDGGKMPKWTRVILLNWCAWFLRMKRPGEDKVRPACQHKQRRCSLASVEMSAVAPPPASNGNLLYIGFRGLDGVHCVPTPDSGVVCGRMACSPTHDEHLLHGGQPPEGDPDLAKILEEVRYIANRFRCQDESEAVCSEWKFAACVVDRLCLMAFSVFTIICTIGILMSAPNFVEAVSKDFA

α-cobratoxin
inhibition of [125I]-PnIA[R5, R9, L10, R14] binding (in words) (α7 nAChR [1]): failed to achieve a 50% inhibition
Hill coefficient, “replaceable” binding at the orthosteric site (α7 nAChR [2]): 1.0 ± 0.3
radioligand [125I]-PnIA[R9, L10] not displaced (α7 nAChR [2]): ≈ 25%
IC50 (α7 nAChR [2]; read-out: IC50 of [125I]-PnIA[R9, L10] binding inhibition, “replaceable” binding at the orthosteric site): 11 ± 3 nM
removal of [125I]-PnIA[R9, L10] from α7 nAChR (in words) (α7 nAChR [3]): could not completely remove the radioligand from the target even after a 2-hour incubation
